Assay results published in patent US20130252930A1 (BIOMARIN PHARMACEUTICAL INC., priority 2010, published 2013).
pIC50: −log10 of the molar value. Read-outs that look alike come from different tables or passages of the source. Each block holds one molecule with its values, some of them ahead of it.

Key:
[1] = molecular target: T1, CYP17 (human testicular microsome) (Homo sapiens, UniProt P05093); assay: CYP17 enzymatic assay (IC50) (Biological Example 4); type: biochemical; details: human testicular microsome, read-out: Biological Example No. 4: CYP17 enzymatic assay IC50
T1 construct: using microsomal fraction from human testis (Celsis Cat #S00110) as the enzyme source; tissue Celsis S00110; host or cells: human testis microsomal fraction
T1 sequence (P05093 1-508): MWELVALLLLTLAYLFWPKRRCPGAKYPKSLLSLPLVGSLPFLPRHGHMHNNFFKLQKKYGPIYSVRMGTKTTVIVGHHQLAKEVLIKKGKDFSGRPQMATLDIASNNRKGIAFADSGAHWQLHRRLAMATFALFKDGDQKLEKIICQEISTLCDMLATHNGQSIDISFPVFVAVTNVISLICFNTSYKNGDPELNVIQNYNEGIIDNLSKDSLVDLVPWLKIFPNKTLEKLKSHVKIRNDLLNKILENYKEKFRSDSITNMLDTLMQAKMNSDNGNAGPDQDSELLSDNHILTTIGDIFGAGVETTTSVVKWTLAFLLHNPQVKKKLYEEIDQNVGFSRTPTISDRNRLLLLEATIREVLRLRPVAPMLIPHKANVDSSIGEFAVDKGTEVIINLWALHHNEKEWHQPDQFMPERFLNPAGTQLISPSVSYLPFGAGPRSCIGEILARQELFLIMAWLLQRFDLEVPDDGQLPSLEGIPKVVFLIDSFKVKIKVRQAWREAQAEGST

[2] = molecular target: T1, CYP17 (human testicular microsome); assay: CYP17 enzymatic assay (% inhibition at 10 nM), version 1 (Biological Example 5); type: biochemical; details: 10 nM compound, DHEA by ELISA, read-out: Biological Example No. 5: CYP17 percent inhibition at 10 nM (version 1)
[3] = Human liver microsome stability assay (Biological Example 8b); details: liver microsomes, pH 7.4
[4] = molecular target: T2, Cyp21 enzyme (Human HEK 293-Cyp21 stable transfected cells) (Homo sapiens, UniProt P08686); assay: CYP21-HEK293 enzymatic assay (IC50) (Biological Example 11); type: cell-based; details: read-out: CYP21-HEK293 enzymatic assay IC50 (Biological Example No. 11)
T2 construct: expressed in transfected cells
T2 sequence (P08686 1-495): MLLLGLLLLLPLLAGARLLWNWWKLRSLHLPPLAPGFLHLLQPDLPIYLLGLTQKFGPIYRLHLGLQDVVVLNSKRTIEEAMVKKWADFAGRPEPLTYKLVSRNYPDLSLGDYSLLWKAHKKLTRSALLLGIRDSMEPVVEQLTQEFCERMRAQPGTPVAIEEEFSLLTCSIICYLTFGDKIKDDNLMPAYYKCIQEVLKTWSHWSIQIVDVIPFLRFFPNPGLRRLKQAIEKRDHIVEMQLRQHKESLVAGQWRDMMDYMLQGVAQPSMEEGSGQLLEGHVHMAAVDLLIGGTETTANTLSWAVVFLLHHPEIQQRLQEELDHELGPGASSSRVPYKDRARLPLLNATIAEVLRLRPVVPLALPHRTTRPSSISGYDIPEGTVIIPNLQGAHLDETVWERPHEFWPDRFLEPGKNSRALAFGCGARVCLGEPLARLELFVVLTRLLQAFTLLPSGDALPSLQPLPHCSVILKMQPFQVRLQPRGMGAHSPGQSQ

[5] = molecular target: T1, CYP17 (human testicular microsome); assay: CYP17 enzymatic assay (% inhibition at 1 nM) (Biological Example 12); type: biochemical; details: compound at 1 nM
[6] = read-out: CYP17 enzymatic assay % inhibition at 1 nM (Biological Example No. 12)
[7] = HEK 293-Cyp21 stable transfected cells

Compound: C[C@]12CCCCC1C(O)C[C@@H]1[C@@H]2CC[C@]2(C)C(n3ccnc3)=CC[C@@H]12 (stereo partly drawn) [Compound 85, (10R,13S)-17-(1H-imidazol-1-yl)-10,13-dimethyl-2,3,4,5,6,7,8,9,10,11,12,13,14,15-tetradecahydro-1H-cyclopenta[a]phenanthren-6-ol]
pIC50 ([1]; DHEA by ELISA): > 7.96 | inhibition at 0.01 µM [2]: 50 to 80% | half-life at 1 μM [3]: 1 to 50 min

Compound: C[C@]12CC[C@H]3[C@@H](CC[C@H]4C[C@@H](O)CC[C@@]43C)C1=CC=C2c1cccnc1 [Compound 163, (5S,8R,9S,10S,13S)-10,13-dimethyl-17-(pyridin-3-yl)-2,3,4,5,6,7,8,9,10,11,12,13-dodecahydro-1H-cyclopenta[a]phenanthren-3-ol]
pIC50 ([1]; DHEA by ELISA): > 7.96 | inhibition at 0.01 µM [2]: > 80% | half-life at 1 μM [3]: > 50 min

Compound: Cc1cccc(C)c1C(=O)O[C@H]1CC[C@@]2(C)C(=CCC3C4=CC=C(c5cccnc5)[C@@]4(C)CCC32)C1 (stereo partly drawn) [Compound 196, (3S,10R,13S)-10,13-dimethyl-17-(pyridin-3-yl)-2,3,4,7,8,9,10,11,12,13-decahydro-1H-cyclopenta[a]phenanthren-3-yl 2,6-dimethylbenzoate]
pIC50 ([4]; HEK 293-Cyp21 cells): < 6.00 | inhibition at 0.001 µM [5, 6]: < 10%

Compound: Cc1cccc(C)c1C(=O)O[C@@H]1CC[C@@]2(C)C(=CCC3C4=CC=C(c5cccnc5)[C@@]4(C)CCC32)C1 (stereo partly drawn) [Compound 198, (3R,10R,13S)-10,13-dimethyl-17-(pyridin-3-yl)-2,3,4,7,8,9,10,11,12,13-decahydro-1H-cyclopenta[a]phenanthren-3-yl 2,6-dimethylbenzoate]
pIC50 ([4]; HEK 293-Cyp21 cells): < 6.00 | inhibition at 0.001 µM [5, 6]: < 10%

Compound: C=C1C[C@H]2C3=CC=C(c4cccnc4)[C@@]3(C)CC[C@@H]2[C@@]2(C)CCC(=O)C=C12 [Compound 348, (10R,13S)-10,13-dimethyl-6-methylene-17-(pyridin-3-yl)-6,7,8,9,10,11,12,13-octahydro-1H-cyclopenta[a]phenanthren-3(2H)-one]
pIC50 [4, 7]: 7.00 to 8.00

Compound: C[C@]12CC[C@H]3[C@@H](CC4(CC4)C4=CC(=O)CC[C@@]43C)C1=CC=C2c1cccnc1 [Compound 351, (10R,13S)-10,13-dimethyl-17-(pyridin-3-yl)-1,7,8,9,10,11,12,13-octahydrospiro[cyclopenta[a]phenanthrene-6,1′-cyclopropan]-3(2H)-one]
pIC50 [4, 7]: > 8.00

Compound: C=C1C[C@H]2C3=CC=C(c4cncc(F)c4)[C@@]3(C)CC[C@@H]2[C@@]2(C)CCC(=O)C=C12 [Compound 353, (10R,13S)-17-(5-fluoropyridin-3-yl)-10,13-dimethyl-6-methylene-6,7,8,9,10,11,12,13-octahydro-1H-cyclopenta[a]phenanthren-3(2H)-one]
pIC50 [4, 7]: 7.00 to 8.00

Compound: C[C@]12CC[C@H]3[C@@H](CC4(CC4)C4=CC(=O)CC[C@@]43C)C1=CC=C2c1cncc(F)c1 [Compound 354, (10R,13S)-17-(5-fluoropyridin-3-yl)-10,13-dimethyl-1,7,8,9,10,11,12,13-octahydrospiro[cyclopenta[a]phenanthrene-6,1′-cyclopropan]-3(2H)-one]
pIC50 [4, 7]: 7.00 to 8.00

Compound: C[C@]12CCCN(S(C)(=O)=O)CC1CCC1C2CC[C@]2(C)C(n3cncc3C#N)=CCC12 (stereo partly drawn) [Compound 431, 1-((5aR,7aS)-5a,7a-dimethyl-2-(methylsulfonyl)-1,2,3,4,5,5a,5b,6,7,7a,10,10a,10b,11,12,12a-hexadecahydrocyclopenta[5,6]naphtho[2,1-c]azepin-8-yl)-1H-imidazole-5-carbonitrile]
pIC50 [4, 7]: < 6.00

Compound: C[C@]12CCN(S(C)(=O)=O)CCC1CCC1C2CC[C@]2(C)C(n3cncc3C#N)=CCC12 (stereo partly drawn) [Compound 432, 1-((5aS,7aS)-5a,7a-dimethyl-3-(methylsulfonyl)-1,2,3,4,5,5a,5b,6,7,7a,10,10a,10b,11,12,12a-hexadecahydrocyclopenta[5,6]naphtho[1,2-d]azepin-8-yl)-1H-imidazole-5-carbonitrile]
pIC50 [4, 7]: < 6.00

Compound: CC(=O)N[C@@H]1CC[C@@]2(C)C(=CCC3C2CC[C@]2(C)C(c4cncc(C(F)F)c4)=CCC32)C1 (stereo partly drawn) [Compound 480, N-((3R,10R,13S)-17-(5-(difluoromethyl)pyridin-3-yl)-10,13-dimethyl-2,3,4,7,8,9,10,11,12,13,14,15-dodecahydro-1H-cyclopenta[a]phenanthren-3-yl)acetamide]
pIC50 [1]: > 7.96 | inhibition at 0.001 µM ([5]; read-out: Biological Example No. 12: CYP17 enzymatic assay % inhibition at 1 nM): > 50% | half-life at 1 μM [3]: 1 to 50 min

The next lines start with the values.

pIC50 ([1]; DHEA by ELISA): > 7.96 | inhibition at 0.01 µM [2]: > 80% | half-life at 1 μM [3]: 1 to 50 min
Compound: C[C@]12CCC(=O)CCC1=CCC1[C@@H]2CC[C@]2(C)C(n3ccnc3)=CC[C@@H]12 (stereo partly drawn) [Compound 106, (3aS,10aR,10bS,12aS)-1-(1H-imidazol-1-yl)-10a,12a-dimethyl-3,3a,3b,4,6,7,10,10a,10b,11,12,12a-dodecahydrocyclohepta[a]cyclopenta[f]naphthalen-8(9H)-one]

pIC50 ([4]; HEK 293-Cyp21 cells): < 6.00 | inhibition at 0.001 µM [5, 6]: 10 to 50%
Compound: C[C@]12CCC3C(CC=C4C=CCC[C@@]43C)C1=CC=C2c1cccnc1 (stereo partly drawn) [Compound 197, 3-((10R,13S)-10,13-dimethyl-2,7,8,9,10,11,12,13-octahydro-1H-cyclopenta[a]phenanthren-17-yl)pyridine]

pIC50 [4, 7]: < 7.00
Compound: CN1CC[C@@]2(C)C(=CC1=O)CCC1C3=CC=C(c4cncc(F)c4)[C@@]3(C)CCC12 (stereo partly drawn) [Compound 392, (5aR,7aS)-8-(5-fluoropyridin-3-yl)-3,5a,7a-trimethyl-3,4,5,5a,5b,6,7,7a,11,12-decahydrocyclopenta[5,6]naphtho[1,2-d]azepin-2(10bH)-one]

pIC50 [4, 7]: 7.00 to 8.00
Compound: CC1CC2C3=CC=C(c4cccnc4)[C@@]3(C)CCC2[C@@]2(C)CCN(C)C(=O)C=C12 (stereo partly drawn) [Compound 393, (5aR,7aS)-3,5a,7a,12-tetramethyl-8-(pyridin-3-yl)-3,4,5,5a,5b,6,7,7a,11,12-decahydrocyclopenta[5,6]naphtho[1,2-d]azepin-2(10bH)-one]

pIC50 [4, 7]: < 7.00
Compound: CC1CC2C3=CC=C(c4cncc(F)c4)[C@@]3(C)CCC2[C@@]2(C)CCN(C)C(=O)C=C12 (stereo partly drawn) [Compound 394, (5aR,7aS)-8-(5-fluoropyridin-3-yl)-3,5a,7a,12-tetramethyl-3,4,5,5a,5b,6,7,7a,11,12-decahydrocyclopenta[5,6]naphtho[1,2-d]azepin-2(10bH)-one]

pIC50 [4, 7]: 7.00 to 8.00
Compound: CN1CC[C@@]2(C)C(=CC1=O)C1CC1[C@H]1C3=CC=C(c4cccnc4)[C@@]3(C)CC[C@@H]12 (stereo partly drawn) [Compound 396, (5aR,7aS)-3,5a,7a-trimethyl-8-(pyridin-3-yl)-3,4,5,5a,5b,6,7,7a,10b,10c,11,11a-dodecahydro-2H-cyclopenta[5,6]cyclopropa[3,4]naphtho[1,2-d]azepin-2-one]

pIC50 [4, 7]: < 6.00
Compound: C[C@]12CCN(S(C)(=O)=O)CCC1CC[C@@H]1[C@@H]2CC[C@]2(C)C(n3ccnc3)=CC[C@@H]12 (stereo partly drawn) [Compound 438, (5aS,7aS)-8-(1H-imidazol-1-yl)-5a,7a-dimethyl-3-(methylsulfonyl)-1,2,3,4,5,5a,5b,6,7,7a,10,10a,10b,11,12,12a-hexadecahydrocyclopenta[5,6]naphtho[1,2-d]azepine]

pIC50 [4, 7]: < 6.00
Compound: C[C@]12CCC3C(CCC4CCN(S(C)(=O)=O)CC[C@@]43C)C1=CC=C2n1ccnc1 (stereo partly drawn) [Compound 489, (5aS,7aS)-8-(1H-imidazol-1-yl)-5a,7a-dimethyl-3-(methylsulfonyl)-1,2,3,4,5,5a,5b,6,7,7a,10b,11,12,12a-tetradecahydrocyclopenta[5,6]naphtho[1,2-d]azepine]
